Assays:
Test in all cases: relative viability (nuclei count vs DMSO), 5 days (fraction); higher = more cells survive
VX-11e + Luminespib = compound: CC1=CN=C(N=C1C2=CNC(=C2)C(=O)N[C@H](CO)C3=CC(=CC=C3)Cl)NC4=C(C=C(C=C4)F)Cl [VX-11e] + CCNC(=O)c1noc(-c2cc(C(C)C)c(O)cc2O)c1-c1ccc(CN2CCOCC2)cc1 [Luminespib] (partner 0.01 µM)
Summary of the method: (§1)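 Relative viability is defined as nuclei in treated wells over nuclei in vehicle wells. Duplicate plates were run and medians reported. Lung cancer cell lines in 1536-well plates were dosed by pin tool one day after seeding, with one drug or with a fixed anchor-drug dose plus five library-drug doses (not always all listed) in √10 steps, and nuclei were counted after 5 days.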

VX-11e + Foretinib = compound: CC1=CN=C(N=C1C2=CNC(=C2)C(=O)N[C@H](CO)C3=CC(=CC=C3)Cl)NC4=C(C=C(C=C4)F)Cl [VX-11e] + COc1cc2c(Oc3ccc(NC(=O)C4(C(=O)Nc5ccc(F)cc5)CC4)cc3F)ccnc2cc1OCCCN1CCOCC1 [Foretinib] (partner 0.25 µM)
Summary of the method: as §1

VX-11e + Navitoclax = compound: CC1=CN=C(N=C1C2=CNC(=C2)C(=O)N[C@H](CO)C3=CC(=CC=C3)Cl)NC4=C(C=C(C=C4)F)Cl [VX-11e] + CC1(C)CCC(c2ccc(Cl)cc2)=C(CN2CCN(c3ccc(C(=O)NS(=O)(=O)c4ccc(N[C@H](CCN5CCOCC5)CSc5ccccc5)c(S(=O)(=O)C(F)(F)F)c4)cc3)CC2)C1 [Navitoclax] (partner 0.5 µM)
Summary of the method: as §1

VX-11e + Linsitinib = compound: CC1=CN=C(N=C1C2=CNC(=C2)C(=O)N[C@H](CO)C3=CC(=CC=C3)Cl)NC4=C(C=C(C=C4)F)Cl [VX-11e] + C[C@]1(O)C[C@@H](c2nc(-c3ccc4ccc(-c5ccccc5)nc4c3)c3c(N)nccn32)C1 [Linsitinib] (partner 1 µM)
Summary of the method: as §1

Cell Line	relative viability (VX-11e + Luminespib; first compound 0.04 µM)	relative viability (VX-11e + Luminespib; first compound 0.1265 µM)	relative viability (VX-11e + Luminespib; first compound 0.4 µM)	relative viability (VX-11e + Luminespib; first compound 1.265 µM)	relative viability (VX-11e + Luminespib; first compound 4 µM)	relative viability (VX-11e + Foretinib; first compound 0.04 µM)	relative viability (VX-11e + Foretinib; first compound 0.1265 µM)	relative viability (VX-11e + Foretinib; first compound 0.4 µM)	relative viability (VX-11e + Foretinib; first compound 1.265 µM)	relative viability (VX-11e + Foretinib; first compound 4 µM)	relative viability (VX-11e + Navitoclax; first compound 0.04 µM)	relative viability (VX-11e + Navitoclax; first compound 0.1265 µM)	relative viability (VX-11e + Navitoclax; first compound 0.4 µM)	relative viability (VX-11e + Navitoclax; first compound 1.265 µM)	relative viability (VX-11e + Navitoclax; first compound 4 µM)	relative viability (VX-11e + Linsitinib; first compound 0.04 µM)	relative viability (VX-11e + Linsitinib; first compound 0.1265 µM)	relative viability (VX-11e + Linsitinib; first compound 0.4 µM)	relative viability (VX-11e + Linsitinib; first compound 1.265 µM)	relative viability (VX-11e + Linsitinib; first compound 4 µM)
NCI-H596	0.898	0.982	0.699	0.755	0.765	0.854	0.952	0.775	0.79	0.506	1.12	0.876	0.895	0.951	0.586	1.06	0.944	0.981	0.874	0.769
NCI-H647	0.248	0.329	0.118	0.24	0.111	1.26	1.12	1.19	1.05	0.405	1.08	1.09	0.904	0.663	0.522	1.1	1.05	1.09	0.674	0.378
NCI-H727	0.293	0.294	0.291	0.312	0.371	0.76	0.775	0.846	0.55	0.302	0.395	0.332	0.283	0.167	0.115	0.314	0.252	0.215	0.274	0.184
NCI-H838	0.413	0.273	0.207	0.347	0.264	1.03	1.11	1.05	1.1	0.779	1.17	1.1	1.05	1.1	0.861	1.06	0.933	0.96	0.887	0.79
NCI-H1355	0.681	0.683	0.552	0.638	0.47	0.93	0.94	0.933	0.883	0.543	0.92	0.891	0.945	0.695	0.333	0.861	0.798	0.786	0.574	0.374
NCI-H1395	0.804	0.637	0.423	0.682	0.46	1.05	0.898	0.931	1	0.666	1.16	0.999	0.832	1.06	0.659	1.17	1.29	0.846	0.963	0.718
NCI-H1437	1.19	1.09	0.996	1.17	0.736	1.27	1.25	1.32	1.36	0.677	1.11	1.05	1.07	0.815	0.52	1.03	1.05	0.888	0.409	0.203
NCI-H1651	0.977	0.847	0.784	0.796	0.672	0.89	0.724	0.781	0.745	0.667	1.06	1.1	0.968	0.893	0.939	1.05	1.02	0.797	0.927	0.758

Reference: the supplement of paper PMC10307832
